Experimental data: patent US8026282B2, “Phenoxyalkylcarboxylic acid derivatives in the treatment of irritable bowel syndrome” (Medicinova, Inc., priority 2004, dated 2011)

Columns and labels:
[1] = Solubility of polymorphs of compound 1; type: physicochemical; conditions: compared to the other polymorphs
[2] = Bioavailability of polymorphs of compound 1; type: in vivo; conditions: compared to the other polymorphs
[3] = tested on: interstitial cystitis (IC); test: Example 8: patient with interstitial cystitis symptoms; type: in vivo, human; conditions: 1000 mg tablet orally twice daily for at least 2 months; present-tense example
Experimental: A person complains of suffering symptoms associated with interstitial cystitis (IC), including gastrointestinal symptoms of diarrhea, bloating and pain. In an effort to alleviate these symptoms, a tablet containing 1000 mg of compound (1) (Form A) is administered orally to this patient twice daily for at least 2 months. […] Similar positive results are observed for other patients complaining of the same or similar symptoms attributable to IC.

With `CCCc1c(SCCCOc2ccc(C(C)=O)c(OCCCC(=O)O)c2CCC)ccc(C(C)=O)c1O` [Form A, 4-[6-acetyl-3-[3-(4-acetyl-3-hydroxy-2-propylphenylthio)propoxy]-2-propylphenoxy]butyric acid] the solubility [1] was “superior”, the bioavailability [2] was “superior” and the “symptoms of interstitial cystitis reported by patient” value [3] was “positive effects”.
